Laboratory results as given in patent publication US4350700A, “Pharmaceutical composition containing 1,3,5-substituted biuret compound” (Taiho Pharmaceutical Company, Limited, priority 1979, dated 1982).
Read-outs that look alike come from different tables or passages of the source.

Tests used:
[1] = Acute toxicity (oral, general symptom and death observed for 7 days); assay type: in vivo, mice (ddy strain, male); conditions: mouse, in vivo; oral, mice, 7 days observation (Δ values); read-out: Acute toxicity, 50% lethal dose LD50
Procedure: (§1) Next, several tests for determining the pharmacological properties, in that acute toxicity, anti-pyretic activity, analgesic activity and anti-inflammatory activity of the present 1,3,5-substituted biuret compounds of the formula (1) were conducted and the test results are shown in Table (2). In the tests, each compounds to be tested was used as a suspension in 0.25% carboxymethylcellulose solution. Methods for testing are explained as follows:
(§2) The ddy strain of male mice (body weight, 20-25 g) were used as test animals. The mice were fasted overnight and the compound to be tested was administered orally. […] The lethal dose (mg/kg, body weight) of the test compound was determined in connection with the death number of mice/the number of mice tested. In Table 2, the values indicated with Δ marks are 50% lethal dose, LD50 (mg/kg, body weight).

[2] = test system: acetic acid-induced stretching symptom of mouse; assay: Analgesic activity, acetic acid-induced stretching method; assay type: in vivo, mice (ddy strain, male); conditions: for ED50: oral, mice (Δ values; range in parentheses), read-out: Analgesic activity, acetic acid-induced stretching method, 50% effective dose ED50
Procedure: as §1
(1) Acetic acid-induced stretching method
According to the method reported by Koster et.al., [Fed. Proc., Vol. 18, pp. 412 (1959)], the ddy strain of male mice (body weight, 20-25 g) were used as test animals. The mice were fasted overnight, 100 mg/kg body weight of the test compound was administered orally, then 1 hour after the administration, 0.2 ml of 0.7% acetic acid solution was injected intraperitoneally. The acetic acid-induced stretching symptom of mouse was observed. Analgesic activity of the test compound was calculated as the inhibitory ratio (%). In Table 2, the values in parentheses show the data obtained from the test by using the dosage other than 100 mg/kg body weight. Further, the values indicated with Δ marks show 50% effective dose, ED50 (mg/kg body weight).

[3] = test system: carrageenin-induced inflammation of the hindpaw of the rat; assay: Anti-inflammatory activity, acute carrageenin-induced inflammatory test; assay type: in vivo, rats (Wistar strain, male); conditions: Rattus norvegicus, read-out: Anti-inflammatory activity, inflammation inhibitory ratio
Procedure: as §1
4. Anti-inflammatory Activity
According to the method of acute carrageenin-induced inflammatory test [Folia Pharmacologia Japonica, Vol. 56, pp. 575 (1960)], the Wistar strain of male rats (body weight, 150-180 g) were used as test animals. The rats were fasted overnight, 100 mg/kg body weight of the test compound was administered orally, then 1 hour after the administration, 0.1 ml of 1% carrageenin solution, as the inflammation inducing agent, was injected subcutaneously to the hindpaw of the rat and the volume of the hindpaw was measured at time sequences. Anti-inflammatory activity of the test compound was calculated as inflammation inhibitory ratio (%) at 3 hours after the injection of inflammation inducing agent.

[4] = test system: pain reaction of the mouse caused by a clamp; assay: Analgesic activity, Haffner method; assay type: in vivo, mice (ddy strain, male); conditions: for Analgesic activity, Haffner method, inhibitory ratio: mice; for ED50: Mus musculus, oral, mice (Δ values; range in parentheses), read-out: Analgesic activity, Haffner method, 50% effective dose ED50
Procedure: as §1
According to the modified method reported by Fujimura et al., [Bulletin of the Institute for Chemical Research, Kyoto University, No. 25, pp. 36 (1951)], the ddy strain of male mice (body weight, 20-25 g) were used as test animals. The mice were fasted overnight, 100 mg/kg body weight of the test compound was administered orally, then 45 minutes after the administration, the threshhold amount (1.5-2.5 mg/kg body weight) of morphine hydrochloride was injected subcutaneously. Then 1-hour pain reaction of the mouse caused by a clamp was observed. Analgesic activity of the test compound was calculated as the inhibitory ratio (%). In Table 2, the values in parentheses show the data obtained from the test by using the dosage other than 100 mg/kg body weight. Further, the values indicated with Δ marks show 50% effective dose, ED50 (mg/kg body weight).

[5] = test system: 10% dry-yeast suspension-induced fever of rats; assay: Anti-pyretic activity (dry-yeast induced fever, febril index); assay type: in vivo, rats (Wistar strain, male); conditions: oral, febril index up to 4 hours after administration, dose not stated
Procedure: as §1
According to the method reported by Tanabe [Folia Pharmacologia Japonica, Vol. 73, pp. 803 (1977)], the Wistar strain of male rats (150-180 g body weight) were used as test animals. The rats were fasted overnight, and 1 ml/100 g (body weight) of 10% dry-yeast suspension were subcutaneously injected on the back of the rats. Five hours afte the injection, the test compound was administered orally, then the body temperature of the rat was measured time sequences. Anti-pyretic activity of the test compound was determined as the FI (febril index) by integrating pyrogenetic curve up to 4 hours after the administration of the test compound with time, and indicated as inhibitory ratio (%) shown by the following formula, [formula]

[6] = test system: ddy strain of male mice; assay: Acute toxicity (oral, general symptom and death observed for 7 days); assay type: in vivo; conditions: 7 days
Procedure: as §1, §2

[7] = po, read-out: Analgesic activity, acetic acid-induced stretching method, inhibitory ratio
[8] = 100 mg/kg oral, rats, 3 hours after carrageenin
[9] = 100 mg/kg oral, mice, read-out: Analgesic activity, acetic acid-induced stretching method, inhibitory ratio

SMILES | LD50 at 168 h [1] [mg/kg] | inhibition in vivo at 100 mg/kg [2, 7] [%] | Anti-pyretic activity, inhibitory ratio [5] [%] | inhibition in vivo at 100 mg/kg ([3]; po, 3 h) [%] | Analgesic activity, Haffner method, inhibitory ratio ([4]; 100 mg/kg oral) [%] | inhibition in vivo at 100 mg/kg [3, 8] [%] | other results
CCNC(=O)NC(=O)Nc1ccc(OC)cc1 [compound 28, 1-Ethyl-5-(4-methoxyphenyl)biuret] | 1600 |  |  |  |  |  | inhibition in vivo at 200 mg/kg [2, 7]: 37.5%; inhibition in vivo at 200 mg/kg ([3]; 200 mg/kg oral, rats, 3 hours after carrageenin): 75%; Analgesic activity, Haffner method, inhibitory ratio ([4]; 200 mg/kg oral): 37.5%
CCNC(=O)N(C)C(=O)Nc1cc(OC)c(OC)c(OC)c1 [Compound No. 37, 1-Ethyl-3-methyl-5-(3,4,5-trimethoxyphenyl)biuret] | 749 | 75 | 97 |  |  |  | ED50 [4]: 46 mg/kg
CCNC(=O)N(C)C(=O)Nc1ccc(OC)c(OC)c1 [compound 36, 1-Ethyl-3-methyl-5-(3,4-dimethoxyphenyl)biuret] | 833 | 50 | 43 | 23 | 62.5 |  | 
CCNC(=O)N(C)C(=O)Nc1cccs1 [compound 40] | 559 | 75 | 42 | 24 | 37.5 |  | 
CNC(=O)N(C)C(=O)Nc1cccnc1 [Compound No. 15, 1,3-Dimethyl-5-(3-pyridyl)-biuret] | 1100 |  | 94 |  | 62.5 | 37 | ED50 [2]: 44 mg/kg
CNC(=O)N(C)C(=O)Nc1ncccn1 [compound 19, 1,3-Dimethyl-5-(2-pyrimidinyl)biuret] | 1400 | 50 | 6 |  | 37.5 |  | 
C=CCNC(=O)NC(=O)Nc1ccccc1 [compound 44] | 1400 | 62.5 |  | 33 | 50 |  | 
CNC(=O)N(C)C(=O)Nc1ccccc1 [Compound No. 3, 1,3-dimethyl-5-phenylbiuret] | 1450 |  | 145 |  |  | 88 | ED50 [2]: 35 mg/kg; ED50 [4]: 111 mg/kg
CNC(=O)N(C)C(=O)Nc1ccncc1 [compound 16] | 1100 | 62.5 |  |  | 25 | 34 | 
CNC(=O)N(C)C(=O)Nc1ccccn1 [Compound No. 14, 1,3-dimethyl-5-(2-pyridyl)biuret] | 656 | 62.5 |  |  |  | 54 | ED50 [4]: 145 mg/kg
C=CCNC(=O)N(C)C(=O)Nc1ccccc1 [Compound No. 45] |  | 50 | 125 | 59 | 12.5 |  | Acute toxicity, death number of mice/number of mice tested ([6]; 1000 mg/kg oral): 2/4; Acute toxicity, death number of mice/number of mice tested ([6]; 2000 mg/kg oral): 4/4
CNC(=O)N(C)C(=O)Nc1ccc(Cl)cc1 [compound 6] | 1240 |  | 72 | 43 | 50 |  | ED50 [2]: 40 mg/kg
CCCCNC(=O)N(C)C(=O)Nc1ccccc1 [Compound No. 47] |  | 75 | 19 |  | 62.5 | 27 | Acute toxicity, death number of mice/number of mice tested ([6]; 2000 mg/kg oral): 0/4
CNC(=O)N(C)C(=O)Nc1ccc(OC)cc1 [Compound No. 8, 1,3-Dimethyl-5-(4-methoxyphenyl)-biuret] | 1440 |  | 110 |  | 50 | 40 | inhibition in vivo at 100 mg/kg [2, 9]: 87.5%
CNC(=O)N(C)C(=O)Nc1ccc2c(c1)OCO2 [compound 9, 1,3-Dimethyl-5-(3,4-methylenedioxyphenyl)biuret] | 1080 | 87.5 | 38 |  | 25 | 46 | 
CCNC(=O)N(C)C(=O)Nc1ccccc1 [Compound No. 31, 1-ethyl-3-methyl-5-phenylbiuret] | 1590 |  | 149 |  |  | 63 | ED50 [2]: 70 mg/kg; ED50 [4]: 105 mg/kg
CNC(=O)N(C)C(=O)Nc1cc(C)ccn1 [compound 17] |  |  | 55 | 33 | 25 |  | Acute toxicity, death number of mice/number of mice tested ([6]; 1000 mg/kg oral): 0/4; Acute toxicity, death number of mice/number of mice tested ([6]; 2000 mg/kg oral): 3/4; inhibition in vivo at 100 mg/kg [2, 9]: 25%
